Consider nine compounds from patent publication US20260022142A1, “MACROCYCLIC IMMUNOMODULATORS” (Bristol-Myers Squibb Company, priority 2022, published 2026).

Numbered stars: 1 amine (or outer) side, 2 acyl side, 3 side chain; on linkers, the order of the positions; unused ones are H or OH. Bridge positions count the residues as written; N and C are the ends. Square brackets hold non-standard residues; d marks the D form. Peptide text beside a SMILES is read from it. * marks the point of attachment. ξ: configuration not given here. Phe(3,4,5-F3) = N[C@@H](Cc1cc(F)c(F)c(F)c1)C(=O)O; Phe(4-COOH) = N[C@@H](Cc1ccc(C(=O)O)cc1)C(=O)O; Bip = N[C@@H](Cc1ccc(-c2ccccc2)cc1)C(=O)O; Phe(3-Me) = Cc1cccc(C[C@H](N)C(=O)O)c1; X5 = CC(C)(CCN)[C@H](N[*:1])C(=O)[*:2]; NH(CH2)12COOH = O=C(O)CCCCCCCCCCCCN*; Val(3-OH) = CC(C)(O)[C@H](N)C(=O)O; 4Pal = N[C@@H](Cc1ccncc1)C(=O)O; Aad = N[C@@H](CCCC(=O)O)C(=O)O; Cha = N[C@@H](CC1CCCCC1)C(=O)O; Cit = NC(=O)NCCC[C@H](N)C(=O)O; Thr(3ξ) = CC(O)[C@H](N)C(=O)O; hSer = N[C@@H](CCO)C(=O)O; Carboxymethyl = O=C(O)C*; Orn = NCCC[C@H](N)C(=O)O; Aun = NCCCCCCCCCCC(=O)O; Dab = NCC[C@H](N)C(=O)O; Dap = NC[C@H](N)C(=O)O; AEEA = NCCOCCOCC(=O)O; Piv = CC(C)(C)C(=O)*

For the experiment, the target named is T1, PD-1/PD-L1 interaction (PE-labeled human PD-L1-Ig binding to Jurkat cell line over-expressing human PD-1) (Homo sapiens, UniProt Q15116).
T1 construct: expressed in transfected cells; host or cells: Jurkat
T1 sequence (Q15116 25-288): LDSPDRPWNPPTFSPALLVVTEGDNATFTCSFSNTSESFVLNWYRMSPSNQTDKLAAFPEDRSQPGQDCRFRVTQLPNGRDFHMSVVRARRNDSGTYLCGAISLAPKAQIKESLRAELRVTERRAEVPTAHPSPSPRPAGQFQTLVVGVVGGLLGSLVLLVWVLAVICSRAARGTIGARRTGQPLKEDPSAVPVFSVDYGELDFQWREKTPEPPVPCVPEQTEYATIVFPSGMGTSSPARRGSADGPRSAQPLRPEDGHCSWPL
Briefly: Jurkat-PD-1 Cell Binding High-Content Screening Assay (CBA). It is filed as cell-based. The following applies: Jurkat cell line over-expressing human PD-1; PE-labeled PD-L1-Ig 20 nM final; read-out: Jurkat hPD1-PDL1 IC50. The method, then: Example 2: Jurkat-PD-1 Cell Binding High-Content Screening Assay (CBA)
Phycoerythrin (PE) was covalently linked to the Ig epitope tag of human PD-L1-Ig and fluorescently-labeled PD-L1-Ig was used for binding studies with a Jurkat cell line over-expressing human PD-1 (Jurkat-PD-1). Briefly, 8×10^3 Jurkat-hPD-1 cells were seeded into 384 well plates in 20 μl of DMEM supplemented with 10% fetal calf serum. 100 nl of compound was added to cells followed by incubation at 37° C. for 2 h. Then, 5 μl of PE-labeled PD-L1-Ig (20 nM final), diluted in DMEM supplemented with 10% fetal calf serum. After 1 hour incubation, cells were fixed with 4% paraformaldehyde in dPBS containing 10 μg/ml Hoechst 33342 and then washed 3× in 100 μl dPBS. Data was collected and processed using a Cell Insight NXT High Content Imager and associated software.
Regarding `CC(C)C[C@H]1NC(=O)[C@H](CCCN)NC(=O)[C@H](C(C)C)NC(=O)[C@H](Cc2ccc(-c3ccccc3)cc2)NC(=O)[C@H](C(C)C)NC(=O)[C@H](Cc2c[nH]c3ccccc23)NC(=O)[C@H](CC(=O)O)NC(=O)[C@H](Cc2ccc(OCC(=O)O)cc2)NC(=O)[C@H](Cc2ccc(OCC(=O)O)cc2)NC(=O)CSC[C@@H](C(=O)N[C@@H](CCN)C(=O)NCCCCCCCCCCC(=O)O)NC(=O)[C@H](CCCNC(=N)N)NC(=O)[C@H](C(C)C)NC(=O)[C@H](CC2CCCCC2)NC(=O)[C@H](CCN)NC1=O` [Compound 2556] ({CH2CO}-Y(Carboxymethyl)Y(Carboxymethyl)DWV[Bip]V[Orn][dL][Dab][Cha]VRC[Dab][Aun]-OH; thioether N-14), the 50% inhibitory concentration (IC50) is 43.7 nM. For `Cc1cccc(C[C@@H]2NC(=O)[C@H](CC(=O)O)NC(=O)[C@H](Cc3ccc(OCC(=O)O)cc3)NC(=O)[C@H](Cc3ccncc3)NC(=O)CSC[C@@H](C(=O)N[C@@H](CCN)C(=O)NCCCCCCCCCCC(=O)O)NC(=O)[C@H](CO)NC(=O)[C@H](C(C)(C)O)NC(=O)[C@H](CC3CCCCC3)NC(=O)[C@H](CCN)NC(=O)[C@@H](CC(C)C)NC(=O)[C@H](CCCN)NC(=O)[C@H](Cc3ccc(OCC(=O)O)cc3)NC(=O)[C@H](Cc3ccc(-c4ccccc4)cc3)NC(=O)[C@H](Cc3cc(F)c(F)c(F)c3)NC2=O)c1` [Compound 2202] ({CH2CO}-[4Pal]Y(Carboxymethyl)D[Phe(3-Me)][Phe(3,4,5-F3)][Bip]Y(Carboxymethyl)[Orn][dL][Dab][Cha][Val(3-OH)]SC[Dab][Aun]-OH; thioether N-14), the IC50 stood at 25.9 nM.

For the compound `Cc1cccc(C[C@@H]2NC(=O)[C@H](CC(=O)O)NC(=O)[C@H](Cc3ccc(C(=O)O)cc3)NC(=O)[C@H](Cc3ccc(OCC(=O)O)cc3)NC(=O)CSC[C@@H](C(=O)N[C@@H](CCN)C(=O)NCCCCCCCCCCC(=O)O)NC(=O)[C@H]([C@@H](C)O)NC(=O)[C@H](C(C)C)NC(=O)[C@H](CC3CCCCC3)NC(=O)[C@H](CCN)NC(=O)[C@@H](CC(C)C)NC(=O)[C@H](CCCN)NC(=O)[C@H](Cc3ccc(O)cc3)NC(=O)[C@H](Cc3ccc(-c4ccccc4)cc3)NC(=O)[C@H](C(C)C)NC2=O)c1` [Compound 2748] ({CH2CO}-Y(Carboxymethyl)[Phe(4-COOH)]D[Phe(3-Me)]V[Bip]Y[Orn][dL][Dab][Cha]VTC[Dab][Aun]-OH; thioether N-14), the IC50 was found to be 147 nM.

As to `Cc1cccc(C[C@@H]2NC(=O)[C@H](CC(=O)O)NC(=O)[C@H](Cc3ccc(OCC(=O)O)cc3)NC(=O)[C@H](CN)NC(=O)CSC[C@@H](C(=O)N[C@@H](CCN)C(=O)NCCOCCOCC(=O)NCCCCCCCCCCC(=O)O)NC(=O)[C@H](C(C)O)NC(=O)[C@H](Cc3ccc(O)cc3)NC(=O)[C@H](CC3CCCCC3)NC(=O)[C@H](CCN)NC(=O)[C@@H](CC(C)C)NC(=O)[C@H](CCCN)NC(=O)[C@H](CCCNC(N)=O)NC(=O)[C@H](Cc3ccc(-c4ccccc4)cc3)NC(=O)[C@H](Cc3ccc(O)cc3)NC2=O)c1` (stereo partly drawn) [Compound 2571] ({CH2CO}-[Dap]Y(Carboxymethyl)D[Phe(3-Me)]Y[Bip][Cit][Orn][dL][Dab][Cha]Y[Thr(3ξ)]C[Dab][AEEA][Aun]-OH; thioether N-14), the IC50 stood at 13 nM. As to `Cc1cccc(C[C@@H]2NC(=O)[C@H](CC(=O)O)NC(=O)[C@H](CCCC(=O)O)NC(=O)[C@H]([C@@H](C)O)NC(=O)CSC[C@@H](C(=O)N[C@@H](CCN)C(=O)NCCCCCCCCCCC(=O)O)NC(=O)[C@H](CO)NC(=O)[C@H](C(C)(C)O)NC(=O)[C@H](CC3CCCCC3)NC(=O)[C@H](CCN)NC(=O)[C@@H](CC(C)C)NC(=O)[C@H](CCCN)NC(=O)[C@H](Cc3ccc(OCC(=O)O)cc3)NC(=O)[C@H](Cc3ccc(-c4ccccc4)cc3)NC(=O)[C@H](Cc3ccc(OCC(=O)O)cc3)NC2=O)c1` [Compound 2198] ({CH2CO}-T[Aad]D[Phe(3-Me)]Y(Carboxymethyl)[Bip]Y(Carboxymethyl)[Orn][dL][Dab][Cha][Val(3-OH)]SC[Dab][Aun]-OH; thioether N-14), the IC50 was determined as 48.1 nM. For `Cc1cccc(C[C@@H]2NC(=O)[C@H](CC(=O)O)NC(=O)[C@H](Cc3ccc(OCC(=O)O)cc3)NC(=O)[C@H](CN)NC(=O)CSC[C@@H](C(=O)N[C@@H](CCN)C(=O)NCCCCCCCCCCC(=O)O)NC(=O)[C@H](CCO)NC(=O)[C@H](C(C)C)NC(=O)[C@H](CC3CCCCC3)NC(=O)[C@H](CCN)NC(=O)[C@@H](CC(C)C)NC(=O)[C@H](CCCN)NC(=O)[C@H](Cc3ccc(O)cc3)NC(=O)[C@H](Cc3ccc(-c4ccccc4)cc3)NC(=O)[C@H](Cc3ccc(OCC(=O)O)cc3)NC2=O)c1` [Compound 2102] ({CH2CO}-[Dap]Y(Carboxymethyl)D[Phe(3-Me)]Y(Carboxymethyl)[Bip]Y[Orn][dL][Dab][Cha]V[hSer]C[Dab][Aun]-OH; thioether N-14) the value was 29.1 nM; for `Cc1cccc(C[C@@H]2NC(=O)[C@H](CC(=O)O)NC(=O)[C@H](Cc3ccc(OCC(=O)O)cc3)NC(=O)[C@H](CN)NC(=O)CSC[C@@H](C(=O)N[C@@H](CCN)C(=O)NCCOCCOCC(=O)NCCCCCCCCCCC(=O)O)NC(=O)[C@H](C(C)O)NC(=O)[C@H](Cc3ccc(O)cc3)NC(=O)[C@H](CC3CCCCC3)NC(=O)[C@H](CCN)NC(=O)[C@@H](CC(C)C)NC(=O)[C@H](CCCN)NC(=O)[C@H](CCCNC(N)=O)NC(=O)[C@H](Cc3ccc(-c4ccccc4)cc3)NC(=O)[C@H](C(C)C)NC2=O)c1` (stereo partly drawn) [Compound 2583] ({CH2CO}-[Dap]Y(Carboxymethyl)D[Phe(3-Me)]V[Bip][Cit][Orn][dL][Dab][Cha]Y[Thr(3ξ)]C[Dab][AEEA][Aun]-OH; thioether N-14), 32.3 nM. For the compound `Cc1cccc(C[C@@H]2NC(=O)[C@H](CC(=O)O)NC(=O)[C@H](Cc3ccc(OCC(=O)O)cc3)NC(=O)[C@H](C(C)(C)CCN)NC(=O)CSC[C@@H](C(=O)N[C@@H](CCN)C(=O)NCCCCCCCCCCCCC(=O)O)NC(=O)[C@H](CO)NC(=O)[C@H](C(C)(C)O)NC(=O)[C@H](CC3CCCCC3)NC(=O)[C@H](CCN)NC(=O)[C@@H](CC(C)C)NC(=O)[C@H](CCCN)NC(=O)[C@H](Cc3ccc(OCC(=O)O)cc3)NC(=O)[C@H](Cc3ccc(-c4ccccc4)cc3)NC(=O)[C@H](Cc3ccc(OCC(=O)O)cc3)NC2=O)c1` [Compound 2176] ({CH2CO}-[X5]Y(Carboxymethyl)D[Phe(3-Me)]Y(Carboxymethyl)[Bip]Y(Carboxymethyl)[Orn][dL][Dab][Cha][Val(3-OH)]SC[Dab]-{NH(CH2)12COOH}; thioether N-14), the IC50 came out at 105 nM. Regarding `Cc1cccc(C[C@@H]2NC(=O)[C@H](CC(=O)O)NC(=O)[C@H](Cc3ccc(OCC(=O)O)cc3)NC(=O)[C@H](CCCNC(=N)N)NC(=O)CSC[C@@H](C(=O)N[C@@H](CCN)C(=O)NCCCCCCCCCCC(=O)O)NC(=O)[C@H](C(C)O)NC(=O)[C@H](C(C)C)NC(=O)[C@H](CC3CCCCC3)NC(=O)[C@H](CCN)NC(=O)[C@@H](CC(C)C)NC(=O)[C@H](CCCN)NC(=O)[C@H](CCCCNC(=O)C(C)(C)C)NC(=O)[C@H](Cc3ccc(-c4ccccc4)cc3)NC(=O)[C@H](Cc3ccc(O)cc3)NC2=O)c1` (stereo partly drawn) [Compound 3556] ({CH2CO}-RY(Carboxymethyl)D[Phe(3-Me)]Y[Bip]K(Piv)[Orn][dL][Dab][Cha]V[Thr(3ξ)]C[Dab][Aun]-OH; thioether N-14), the IC50 is 13.2 nM.

By IC50 is commonly meant the concentration that gives 50% inhibition.
